As a reminder, the solubility is how much of the substance goes into solution per volume. Lower therefore signals a poorly soluble substance. A word on the IC50: it is the midpoint of a concentration-inhibition curve. The term inhibition denotes the percentage by which the read-out fell short of the control.

Data set [1] in a line: Aqueous solubility of compound. As to conditions: buffer. Format: physicochemical.
A short description of data set [2]: Stability of compound in aqueous tetrahydrofuran buffer at pH 7.5 assessed as compound remaining incubated for 16 hrs in presence of glutathione by nuclear magnetic resonance spectroscopy based LC-MS analysis. The class given is physicochemical. As to conditions: aqueous tetrahydrofuran buffer with glutathione, read-out: Stability.
Data set [3] can be described thus: Chemical reactivity of compound to La antigen incubated overnight by LC-MS analysis. Format: physicochemical.
The target in data set [4] is T1, Transient receptor potential cation channel subfamily A member 1 (Rattus norvegicus, UniProt Q6RI86). Briefly: Antagonist activity at rat TRPA1 expressed in HEK293F cells assessed as reduction in AITC-induced increase in intracellular Ca2+ level by FLIPR-based Ca2+ assay. The class given is cell-based.
T1 sequence (Q6RI86 whole entry): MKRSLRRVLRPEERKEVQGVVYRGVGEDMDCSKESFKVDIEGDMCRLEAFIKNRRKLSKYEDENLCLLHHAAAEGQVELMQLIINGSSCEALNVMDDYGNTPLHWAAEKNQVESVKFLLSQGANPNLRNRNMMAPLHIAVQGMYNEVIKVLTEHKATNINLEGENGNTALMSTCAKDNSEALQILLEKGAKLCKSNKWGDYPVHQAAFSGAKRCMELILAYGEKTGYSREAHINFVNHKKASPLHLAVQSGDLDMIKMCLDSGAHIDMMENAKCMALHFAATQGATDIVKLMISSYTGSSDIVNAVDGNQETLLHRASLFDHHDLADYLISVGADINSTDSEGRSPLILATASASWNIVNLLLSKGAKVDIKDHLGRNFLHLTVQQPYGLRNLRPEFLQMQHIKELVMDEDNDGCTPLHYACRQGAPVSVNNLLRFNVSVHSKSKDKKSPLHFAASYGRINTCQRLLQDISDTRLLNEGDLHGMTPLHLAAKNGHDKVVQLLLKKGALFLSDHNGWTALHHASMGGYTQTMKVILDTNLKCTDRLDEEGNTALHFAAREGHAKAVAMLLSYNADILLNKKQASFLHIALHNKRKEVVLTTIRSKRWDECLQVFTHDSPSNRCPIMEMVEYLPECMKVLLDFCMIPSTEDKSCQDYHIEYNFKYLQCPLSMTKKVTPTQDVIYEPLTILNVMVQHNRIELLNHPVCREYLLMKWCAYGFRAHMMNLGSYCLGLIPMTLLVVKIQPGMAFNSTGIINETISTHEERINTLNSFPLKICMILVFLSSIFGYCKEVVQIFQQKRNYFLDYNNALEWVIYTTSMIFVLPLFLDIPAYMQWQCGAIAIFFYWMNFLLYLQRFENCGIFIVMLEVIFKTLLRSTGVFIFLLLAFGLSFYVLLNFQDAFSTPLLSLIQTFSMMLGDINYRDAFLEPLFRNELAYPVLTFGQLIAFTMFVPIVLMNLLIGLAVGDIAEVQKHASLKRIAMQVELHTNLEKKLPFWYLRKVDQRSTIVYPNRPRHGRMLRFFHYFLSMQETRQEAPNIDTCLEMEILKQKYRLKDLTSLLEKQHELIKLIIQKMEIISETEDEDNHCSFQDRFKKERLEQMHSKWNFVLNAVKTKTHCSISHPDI
The target of data set [5] is Transient receptor potential cation channel subfamily A member 1 (Mus musculus, UniProt Q8BLA8). Put plainly: Antagonist activity at mouse TRPA1 expressed in HEK293F cells assessed as reduction in AITC-induced increase in intracellular Ca2+ level by FLIPR-based Ca2+ assay. Format: cell-based.
Sequence of Transient receptor potential cation channel subfamily A member 1 (Mus musculus, UniProt Q8BLA8) (Q8BLA8 whole entry): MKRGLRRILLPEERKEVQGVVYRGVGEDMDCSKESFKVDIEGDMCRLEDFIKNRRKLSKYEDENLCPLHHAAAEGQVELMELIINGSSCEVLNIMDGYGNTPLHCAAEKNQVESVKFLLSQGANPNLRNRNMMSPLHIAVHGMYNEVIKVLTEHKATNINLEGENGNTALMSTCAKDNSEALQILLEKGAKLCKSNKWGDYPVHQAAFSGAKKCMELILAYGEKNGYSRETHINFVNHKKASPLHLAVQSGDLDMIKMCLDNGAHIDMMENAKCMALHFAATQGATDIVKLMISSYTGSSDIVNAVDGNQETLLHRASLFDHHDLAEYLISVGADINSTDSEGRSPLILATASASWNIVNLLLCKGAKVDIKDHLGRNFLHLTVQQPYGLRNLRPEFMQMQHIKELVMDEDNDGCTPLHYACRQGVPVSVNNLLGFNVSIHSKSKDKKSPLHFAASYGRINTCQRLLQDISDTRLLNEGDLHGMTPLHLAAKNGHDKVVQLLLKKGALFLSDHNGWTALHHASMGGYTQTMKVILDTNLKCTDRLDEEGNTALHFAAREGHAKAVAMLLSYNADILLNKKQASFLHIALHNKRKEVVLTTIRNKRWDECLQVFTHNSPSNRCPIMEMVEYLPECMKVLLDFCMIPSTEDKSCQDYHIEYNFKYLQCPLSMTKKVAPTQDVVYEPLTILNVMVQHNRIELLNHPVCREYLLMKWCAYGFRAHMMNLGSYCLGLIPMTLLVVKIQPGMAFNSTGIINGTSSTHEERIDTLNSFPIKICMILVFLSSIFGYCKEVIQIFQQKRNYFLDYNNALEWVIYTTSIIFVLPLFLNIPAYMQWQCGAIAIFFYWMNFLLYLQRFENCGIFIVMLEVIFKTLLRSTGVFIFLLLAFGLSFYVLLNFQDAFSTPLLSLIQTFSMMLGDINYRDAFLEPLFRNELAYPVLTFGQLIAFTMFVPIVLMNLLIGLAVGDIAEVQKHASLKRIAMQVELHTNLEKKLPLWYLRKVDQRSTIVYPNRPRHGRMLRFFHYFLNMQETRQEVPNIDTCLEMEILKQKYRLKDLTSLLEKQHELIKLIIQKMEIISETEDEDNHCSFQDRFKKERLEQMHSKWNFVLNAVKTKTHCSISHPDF
In data set [6] the target is T1, Transient receptor potential cation channel subfamily A member 1. Briefly: Antagonist activity at GFP-tagged rat TRPA1 transfected in HEK293F cells assessed as reduction in AITC-induced inward current at -60 mV holding potential by electrophysiological recordings. The class given is cell-based.
Data set [7] addresses T2, Transient receptor potential cation channel subfamily V member 1 (Homo sapiens, UniProt Q8NER1). Put plainly: Activation of human TRPV1 expressed in HEK293F cells upto 100 micromol/L. Format: cell-based. As to conditions: dose <= 100.0 µmol/L.
The target of data set [8] is T3, Transient receptor potential cation channel subfamily M member 8 (Homo sapiens, UniProt Q7Z2W7). Put plainly: Activation of human TRPM8 expressed in HEK293F cells upto 100 micromol/L. Format: cell-based. As to conditions: dose <= 100.0 µmol/L.
T3 sequence (Q7Z2W7 whole entry, looked up): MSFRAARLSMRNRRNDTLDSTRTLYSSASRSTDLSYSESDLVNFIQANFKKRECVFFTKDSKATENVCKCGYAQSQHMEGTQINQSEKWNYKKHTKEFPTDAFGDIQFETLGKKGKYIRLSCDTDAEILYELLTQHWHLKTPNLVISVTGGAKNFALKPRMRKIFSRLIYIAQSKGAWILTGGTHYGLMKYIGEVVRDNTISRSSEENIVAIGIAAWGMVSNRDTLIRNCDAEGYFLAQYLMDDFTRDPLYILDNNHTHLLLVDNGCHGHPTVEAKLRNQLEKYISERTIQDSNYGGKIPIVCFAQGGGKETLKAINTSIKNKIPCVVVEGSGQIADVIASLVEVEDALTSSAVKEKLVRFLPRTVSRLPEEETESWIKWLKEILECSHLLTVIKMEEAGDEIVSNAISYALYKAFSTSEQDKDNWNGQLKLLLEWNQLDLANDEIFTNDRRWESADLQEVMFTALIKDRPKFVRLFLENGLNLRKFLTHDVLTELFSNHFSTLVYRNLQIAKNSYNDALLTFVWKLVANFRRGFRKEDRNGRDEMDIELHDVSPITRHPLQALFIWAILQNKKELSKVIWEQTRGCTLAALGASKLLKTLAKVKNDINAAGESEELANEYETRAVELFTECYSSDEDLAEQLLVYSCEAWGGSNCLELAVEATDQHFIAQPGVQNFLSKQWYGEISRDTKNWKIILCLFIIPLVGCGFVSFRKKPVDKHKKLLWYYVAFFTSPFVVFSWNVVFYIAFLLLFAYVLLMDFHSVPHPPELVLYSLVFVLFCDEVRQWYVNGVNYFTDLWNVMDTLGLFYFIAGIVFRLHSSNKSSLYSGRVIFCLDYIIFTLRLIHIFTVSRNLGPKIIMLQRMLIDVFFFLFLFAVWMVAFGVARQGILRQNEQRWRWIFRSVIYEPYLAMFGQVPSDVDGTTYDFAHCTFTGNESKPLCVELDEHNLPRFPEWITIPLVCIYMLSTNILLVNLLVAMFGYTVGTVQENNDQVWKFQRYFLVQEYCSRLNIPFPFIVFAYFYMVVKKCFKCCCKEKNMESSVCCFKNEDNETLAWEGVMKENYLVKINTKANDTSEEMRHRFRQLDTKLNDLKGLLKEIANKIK
The target in data set [9] is T2, Transient receptor potential cation channel subfamily V member 1. Briefly: Antagonist activity at human TRPV1 expressed in HEK293F cells assessed as inhibition of capsaicin-induced increase in intracellular Ca2+ level by FLIPR-based Ca2+ assay. The class given is cell-based.
Data set [10] deals with T4, Transient receptor potential cation channel subfamily V member 3 (Homo sapiens, UniProt Q8NET8).
T4 sequence (Q8NET8 whole entry): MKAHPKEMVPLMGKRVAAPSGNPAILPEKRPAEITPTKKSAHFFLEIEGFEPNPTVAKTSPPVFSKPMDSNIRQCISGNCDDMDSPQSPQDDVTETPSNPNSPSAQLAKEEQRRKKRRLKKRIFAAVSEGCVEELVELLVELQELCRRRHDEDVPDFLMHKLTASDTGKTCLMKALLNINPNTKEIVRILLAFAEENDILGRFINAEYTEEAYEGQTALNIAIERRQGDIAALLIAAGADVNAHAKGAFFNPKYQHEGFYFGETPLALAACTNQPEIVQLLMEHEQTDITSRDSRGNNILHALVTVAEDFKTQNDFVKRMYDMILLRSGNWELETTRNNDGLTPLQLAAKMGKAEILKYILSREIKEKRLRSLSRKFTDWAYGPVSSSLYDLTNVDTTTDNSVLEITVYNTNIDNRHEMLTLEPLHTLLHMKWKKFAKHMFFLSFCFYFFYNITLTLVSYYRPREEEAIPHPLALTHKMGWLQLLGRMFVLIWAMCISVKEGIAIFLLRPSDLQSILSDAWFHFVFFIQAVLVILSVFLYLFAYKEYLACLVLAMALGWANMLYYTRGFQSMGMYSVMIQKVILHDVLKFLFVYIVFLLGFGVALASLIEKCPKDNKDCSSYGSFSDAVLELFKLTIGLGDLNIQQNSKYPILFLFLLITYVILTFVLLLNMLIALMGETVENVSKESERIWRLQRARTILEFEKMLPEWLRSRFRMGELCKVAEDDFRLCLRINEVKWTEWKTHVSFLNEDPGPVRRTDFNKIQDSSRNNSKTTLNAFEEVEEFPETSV
Put plainly: Antagonist activity at endogenous TRPV3 in human epithelial cells assessed as inhibition of 2APB-induced increase in intracellular Ca2+ level by FLIPR-based Ca2+ assay. Format: cell-based, Epithelial cell.

Data set [11] has as its target T3, Transient receptor potential cation channel subfamily M member 8. Briefly: Antagonist activity at human TRPM8 expressed in HEK293F cells assessed as inhibition of menthol-induced TRPM8 channel activation by FLIPR-based Ca2+ assay relative to control. Format: cell-based. As to conditions: concentration not given here.
Data set [12] concerns the target Sodium-dependent dopamine transporter (Homo sapiens) (UniProt Q01959). Briefly: Inhibition of dopamine transporter (unknown origin) at 10 micromol/L by radioligand binding assay. As to conditions: dose 10.0 µmol/L.
Data set [13] has as its target Melatonin receptor type 1A (Homo sapiens) (UniProt P48039). Put plainly: Inhibition of MT1 receptor (unknown origin) at 10 micromol/L by radioligand binding assay. As to conditions: dose 10.0 µmol/L.
The target in data set [14] is Transient receptor potential cation channel subfamily A member 1 (Rattus norvegicus) (UniProt Q6RI86). Put plainly: Antagonist activity at endogenous TRPA1 in rat DRG neurons assessed as blockade of AITC-induced CGRP release at 5 micromol/L. Format: cell-based. As to conditions: DRG neuron, filed as antagonist, dose 5.0 µmol/L.
Sequence of Transient receptor potential cation channel subfamily A member 1 (Rattus norvegicus) (Q6RI86 whole entry): as the sequence (Q6RI86 whole entry) above
The nature of data set [15]: Drug concentration in rat at 20.7 mg/kg, po measured after 60 mins. The class given is ADME, organism-based. As to conditions: in vivo, read-out: Drug uptake.
A short description of data set [16]: Drug concentration in rat at 62.1 mg/kg, po measured after 60 mins. Format: ADME, organism-based. As to conditions: in vivo, read-out: Drug uptake.
Data set [17] relates to Rattus norvegicus. Put plainly: Analgesic activity in AITC-induced nocifensive response Sprague-Dawley rat model assessed as prevention of mustard oil-induced flinching behavior administered orally for 1 hrs. Format: functional, organism-based. As to conditions: dose 6.2-62.1 mg/kg, route po.
Data set [18] can be described thus: Toxicity in Sprague-Dawley rat assessed as effect on mean arterial pressure. As to conditions: in vivo.
Data set [19] is described as follows: Toxicity in CD1 mouse assessed as effect on first jump latency at 0 degreeC at 62.1 mg/kg, po measured after 4 mins by noxious cold plate assay. The class given is organism-based. As to conditions: in vivo.
Data set [20] is described as follows: Toxicity in CD1 mouse assessed as effect on total forepaw shivering response at 5 degreeC at 62.1 mg/kg, po measured after 4 mins by noxious cold plate assay. Format: organism-based. As to conditions: in vivo.
The subject of data set [21] is Rattus norvegicus. Put plainly: Antiallodynic activity in CCI-induced neuropathic pain Sprague-Dawley rat model assessed as attenuation of mechanical allodynia at 6.2 to 62.1 mg/kg, po administered with compound for 1 hrs and measured 10 to 14 days after surgery. Format: functional, organism-based. As to conditions: dose 6.2-62.1 mg/kg, time 241-337 hrs.

Active and inactive are the calls of the source. The rule behind the calls is not given here.

T2 sequence (Q8NER1 whole entry): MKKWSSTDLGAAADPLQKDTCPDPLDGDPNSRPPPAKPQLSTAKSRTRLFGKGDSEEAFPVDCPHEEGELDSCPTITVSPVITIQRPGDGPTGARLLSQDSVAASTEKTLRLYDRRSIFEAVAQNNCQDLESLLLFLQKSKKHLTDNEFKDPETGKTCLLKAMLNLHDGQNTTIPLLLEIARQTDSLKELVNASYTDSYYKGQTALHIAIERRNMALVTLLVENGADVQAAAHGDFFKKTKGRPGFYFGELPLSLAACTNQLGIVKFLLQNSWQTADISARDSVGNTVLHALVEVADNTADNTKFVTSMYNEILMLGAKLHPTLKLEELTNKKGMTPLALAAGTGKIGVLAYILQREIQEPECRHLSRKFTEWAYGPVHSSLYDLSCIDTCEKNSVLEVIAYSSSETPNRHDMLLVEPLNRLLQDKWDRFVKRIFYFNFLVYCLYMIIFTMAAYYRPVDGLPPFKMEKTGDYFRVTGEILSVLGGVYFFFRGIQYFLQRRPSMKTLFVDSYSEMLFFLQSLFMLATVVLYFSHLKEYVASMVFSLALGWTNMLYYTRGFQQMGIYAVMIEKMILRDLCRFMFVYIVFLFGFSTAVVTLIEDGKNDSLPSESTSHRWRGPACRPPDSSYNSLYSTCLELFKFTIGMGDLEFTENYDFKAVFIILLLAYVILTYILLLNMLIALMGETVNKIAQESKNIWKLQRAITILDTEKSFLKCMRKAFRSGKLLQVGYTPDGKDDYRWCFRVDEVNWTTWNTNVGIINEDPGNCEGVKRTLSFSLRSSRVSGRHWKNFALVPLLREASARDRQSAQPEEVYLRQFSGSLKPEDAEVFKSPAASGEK
Sequence of Melatonin receptor type 1A (Homo sapiens) (P48039 whole entry): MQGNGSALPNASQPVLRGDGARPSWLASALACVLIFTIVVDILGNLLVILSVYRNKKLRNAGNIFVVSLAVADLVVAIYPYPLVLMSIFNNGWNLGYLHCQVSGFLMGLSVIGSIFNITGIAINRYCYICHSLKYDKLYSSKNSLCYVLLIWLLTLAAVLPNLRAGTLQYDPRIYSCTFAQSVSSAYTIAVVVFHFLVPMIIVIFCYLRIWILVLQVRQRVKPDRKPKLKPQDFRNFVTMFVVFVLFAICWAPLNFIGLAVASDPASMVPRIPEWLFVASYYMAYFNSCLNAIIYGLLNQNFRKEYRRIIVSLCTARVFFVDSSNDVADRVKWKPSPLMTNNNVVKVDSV

Compound `CCC(=N\O)/C(C)=C/c1ccc(F)cc1` [A-079] returned a solubility in data set [1] greater than 300 µM. Also, the remaining at 16 h in [2] is greater than 95%. For the same compound, the Stability entry in data set [3] is recorded as “Stable”. Moreover, the IC50 in data set [4] is 0.289 µM; in data set [5] it was 0.296 µM; in data set [6], 0.101 µM; in data set [9], greater than 100 µM; in data set [10] it was greater than 100 µM. In addition, the outcome (in [7]; in data set [8]; with Rattus norvegicus [21]) was inactive. For the same compound, the results for the inhibition in data set [11], in [12] and in [13] were less than 20%, 43% and 31%, respectively. The outcome in data set [14] was Active. The values for the concentration at 1 h in [15] and in data set [16] were 6.22 µM and 11.8 µM, respectively. In addition, the Activity result is “Dose-Dependent Effect” with Rattus norvegicus [17], “Non-Toxic” in [18], “Non-Toxic” in data set [19] and “Non-Toxic” in data set [20].

For the origin of these results see ChEMBL document CHEMBL5678803, “Selective blockade of TRPA1 channel attenuates pathological pain without altering noxious cold sensation or body temperature regulation” (Pain, 2011).
